Measured values reported in patent US20240181136A1, “LOW MOLECULAR WEIGHT HYDROGELS COMPRISING THIOGLYCOLIPIDS” (ARIZONA BOARD OF REGENTS ON BEHALF OF THE UNIVERSITY OF …, priority 2021, published 2024).

Experiments:
Assay type in all cases: physicochemical
[1] = Visual assessment of thioglycolipid aggregation and hydrogel formation; design: key to Visual assessment of aggregation and gelation: G = gel; F = fibrous aggregation; C = clear solution; O = cloudy solution; details: for Hydrogelation on quenching: quenched at temperatures <20° C.
Description: Preparation of Thioglycolipid Solutions and Hydrogel Fabrication. Aqueous solutions of thioglycolipids were prepared by weighing 2-3 mg of thioglycolipids and adding an appropriate volume of water to make solution samples at desired concentrations in vials. The vials were capped, sealed with Parafilm, and heated to 75° C. (or 85° C. for LacSC12) until the thioglycolipids were completely dissolved, which typically required about 1 min. The samples were then allowed to cool to ambient temperature. Above some minimal concentration, the solution forms hydrogels upon cooling (FIG. 1). While hydrogelation happens in under 1 min, the gels were allowed to equilibrate at room temperature for 15 min before any analysis. To make metastable thiocellobiosides gels, the samples were quenched at −4° C. after dissolution at 75° C. Although the metastable hydrogels also formed in under 1 min, the gels were allowed to equilibrate at −4° C. for 15 min before analysis.
Visual Assessment of Thioglycolipid Hydrogel Formation. A wide range of thioglycolipid solutions were evaluated to establish concentration conditions (wt %) under which hydrogelation occurs and to assess the formation of other phases. For LacSC8 and LacSC12 solutions at concentrations <0.5 wt %, the solutions were either clear (C) or contain large aggregates (O) (i.e., cloudy). These solutions formed partial hydrogels surrounded by clear solution between 0.5 but <1 wt %, and were completely gelled at concentrations of 1 wt % and greater. Solutions of LacSC10 at <2 wt % formed partial hydrogels surrounded by clear liquid but were completely gelled at or above 2 wt %. […] CelSC10 and CelSC12 solutions formed settled fibrous aggregates in clear solution after equilibrating at ambient temperature overnight. […] If retained at 5° C. , the CelSC10 and CelSC12 gels were stable for at least 6 months. […] Powder x-ray diffraction confirmed that these fibrous aggregates were crystalline. Overall, the thioglycolipid concentration at which hydrogelation can be observed can be as low as 0.05 wt %, depending on thioglycolipid system, compared to the typical concentration for hydrogelation of at least 1 wt % commonly reported in the literature, although 0.25-2 wt % is the concentration range wherein these thioglycolipid solutions became fully hydrogelled. The existence of metastable hydrogels and the ability to tune the transformation of hydrogels into crystals may allow their potential use as smart materials for different applications.

[2] = Differential scanning calorimetry of hydrogels (gel-sol phase transition); details: for Phase transition temperature: DSC heating 5° C. per min; for Enthalpy (J/g hydrogel) / Enthalpy (kJ/mol thioglycolipids): gel-sol transition
Description: Differential Scanning calorimetry. A Mettler Toledo DSC 823e differential scanning calorimeter, equipped with cooling apparatus, was used for measurement of the phase transition temperature and enthalpy of the gels. Hydrogel samples were first prepared using the fabrication method described above. Then, they were heated to 75° C. (or 85° C. for LacSC12) until they were in the solution state and then pipetted into aluminum, 40 μL DSC pans and capped with lids. The amount of hydrogel in each aluminum pan was controlled to about 6-8 mg. The pans were maintained at 85° C. for 1 min to ensure the samples were in the solution state. Then, they were cooled to 5° C. and maintained at this temperature for 20 min to ensure the formation of hydrogels. […], the samples were heated from 5° C. to 85° C. at a heating rate at 5° C. per min.
Thermal Properties by DSC. Differential scanning calorimetry (DSC) was used to determine the phase transition temperature as well as to explore the possible existence of other lyotropic phases. DSC involves monitoring the enthalpy change during a phase transition, which can be used as a measure of hydrogel stability. The results (Table 2) indicated an endothermic transition between 30° C. and 80° C. for all thioglycolipid hydrogels studied, and these transitions matched those observed visually in bulk solutions. Overall, hydrogels with longer carbon chains had higher thermostability (i.e., higher phase transition temperature). In addition, the LacSCx (x=10,12) hydrogels had higher thermostability than the CelSCx (x=10,12) hydrogels, despite similar phase transition enthalpies. […] However, the LacSC12 and CelSC12 hydrogels required twice the enthalpy compared to the other three.

[3] = Stability of hydrogel disks in aqueous media of various pH
Text: Stability of some of the representative hydrogels of the invention in various pH aqueous media was investigated.

[4] = Small amplitude oscillatory shear rheology of hydrogels (strain sweep, frequency sweep, thixotropy); details: LacSC10 2 wt %, LacSC12 1 wt %
Description: Rheometry. The viscoelastic mechanical properties of the hydrogels were characterized using small amplitude oscillatory shear rheology on a Discovery Hybrid Rheometer 2 (TA Instruments, USA) with a sandblasted 20 mm cone-and-plate geometry at a 1° angle and a sandblasted stage. Inertia, friction, and rotational mapping calibrations were performed prior to each experiment. A Peltier temperature-controlled stage was maintained at 4° C., 10° C., 25° C., or 37° C. for rheology testing. Hydrogels were heated in a water bath above their transition temperature for 5 min, then transferred to the stage before the geometry was lowered quickly (1-3 sec) to the testing gap height of 50 μm. Excess gel was trimmed from the edges of the assembly. To control evaporation, the assembly was encased in a solvent trap with a water seal, and a mineral oil barrier was placed around the edges of the trap. Hydrogels were allowed to form and relax for 1 hour prior to experimentation. Strain sweeps were performed from 0.01% to 1000% shear strain at a constant 10 rad/s angular frequency. G′ (storage modulus) and G″ (loss modulus) were determined by averaging data within the linear viscoelastic region of the strain sweep. Frequency sweeps were performed from 0.01 rad/s to 100 rad/s at a constant 0.01% shear strain. Thixotropy experiments were conducted by cycling the shear strain between 0.01% and 100%. […]

[5] = thioglycolipid concentration 0.05 wt %, room temperature
[6] = thioglycolipid concentration 0.1 wt %, room temperature
[7] = thioglycolipid concentration 0.25 wt %, room temperature
[8] = thioglycolipid concentration 0.5 wt %, room temperature
[9] = thioglycolipid concentration 0.75 wt %, room temperature
[10] = thioglycolipid concentration 1 wt %, room temperature
[11] = thioglycolipid concentration 2 wt %, room temperature
[12] = thioglycolipid concentration 5 wt %, room temperature
[13] = thioglycolipid concentration 10 wt %, room temperature

| Visual assessment of aggregation and gelation [1, 5] | Visual assessment of aggregation and gelation [1, 6] | Visual assessment of aggregation and gelation [1, 7] | Visual assessment of aggregation and gelation [1, 8] | Visual assessment of aggregation and gelation [1, 9] | Visual assessment of aggregation and gelation [1, 10] | Visual assessment of aggregation and gelation [1, 11] | Visual assessment of aggregation and gelation [1, 12] | Visual assessment of aggregation and gelation [1, 13] | Phase transition temperature ([2]; 1 wt % hydrogel) | Enthalpy (J/g hydrogel) ([2]; 1 wt % hydrogel) | Enthalpy (kJ/mol thioglycolipids) ([2]; 1 wt % hydrogel) | Hydrogelation on quenching [1] | Gel properties at 37° C. [4] | SMILES | also measured |
| --- | --- | --- | --- | --- | --- | --- | --- | --- | --- | --- | --- | --- | --- | --- | --- |
| G + C | G + C | G + C | G + C | G + C | G + C | G | G | G | – | – | – | – | retained their gel properties | CCCCCCCCCCS[C@@H]1O[C@H](CO)[C@@H](O[C@@H]2O[C@H](CO)[C@H](O)[C@H](O)[C@H]2O)[C@H](O)[C@H]1O [LacSC10] | Hydrogel disk size or volume in aqueous media ([3]; pH 2, 7.4 and 10, days 1-21): No observable decrease in disk size or volume; Time hydrogel disks are stable in aqueous media ([3]; pH 2, 7.4 and 10, maximum time investigated): stable in these aqueous media for over two months; Phase transition temperature ([2]; 2 wt % hydrogel): 57-64 °C; Enthalpy (J/g hydrogel) ([2]; 2 wt % hydrogel): 0.35 ± 0.02 J/g hydrogel; Enthalpy (kJ/mol thioglycolipids) ([2]; 2 wt % hydrogel): 8.8 ± 0.5 kJ/mol thioglycolipids; Concentration at which solutions were completely gelled ([1]; room temperature): ≥ 2 wt % |
| O | O | O | G + C | G + C | G | G | G | G | 63-79 °C | 0.39 ± 0.10 J/g hydrogel | 20.7 ± 5.3 kJ/mol thioglycolipids | – | retained their gel properties | CCCCCCCCCCCCS[C@@H]1O[C@H](CO)[C@@H](O[C@@H]2O[C@H](CO)[C@H](O)[C@H](O)[C@H]2O)[C@H](O)[C@H]1O [LacSC12] | – |

Second part, the molecule before the results:

| SMILES | Visual assessment of aggregation and gelation [1, 5] | Visual assessment of aggregation and gelation [1, 6] | Visual assessment of aggregation and gelation [1, 7] | Visual assessment of aggregation and gelation [1, 8] | Visual assessment of aggregation and gelation [1, 9] | Visual assessment of aggregation and gelation [1, 10] | Visual assessment of aggregation and gelation [1, 11] | Visual assessment of aggregation and gelation [1, 12] | Visual assessment of aggregation and gelation [1, 13] | Phase transition temperature ([2]; 1 wt % hydrogel) | Enthalpy (J/g hydrogel) ([2]; 1 wt % hydrogel) | Enthalpy (kJ/mol thioglycolipids) ([2]; 1 wt % hydrogel) | Hydrogelation on quenching [1] | Gel properties at 37° C. [4] | also measured |
| --- | --- | --- | --- | --- | --- | --- | --- | --- | --- | --- | --- | --- | --- | --- | --- |
| CCCCCCCCS[C@@H]1O[C@H](CO)[C@@H](O[C@@H]2O[C@H](CO)[C@@H](O)[C@H](O)[C@H]2O)[C@H](O)[C@H]1O [CelSC8] | C | C | C | C | C | C | C | C | C | – | – | – | – | – | Visual state of solutions over all concentrations studied ([1]; room temperature, 0.05-10 wt %): remained as clear solutions at all concentrations studied |
| CCCCCCCCCCS[C@@H]1O[C@H](CO)[C@@H](O[C@@H]2O[C@H](CO)[C@@H](O)[C@H](O)[C@H]2O)[C@H](O)[C@H]1O [CelSC10] | F | F | G or F | G or F | G or F | G or F | G or F | G or F | G or F | 31-37 °C | 0.18 ± 0.01 J/g hydrogel | 9.0 ± 0.6 kJ/mol thioglycolipids | completely hydrogelled | – | – |
| CCCCCCCCCCCCS[C@@H]1O[C@H](CO)[C@@H](O[C@@H]2O[C@H](CO)[C@@H](O)[C@H](O)[C@H]2O)[C@H](O)[C@H]1O [CelSC12] | F | F | G or F | G or F | G or F | G or F | G or F | G or F | G or F | 42-54 °C | 0.42 ± 0.06 J/g hydrogel | 22.3 ± 3.3 kJ/mol thioglycolipids | completely hydrogelled | – | – |
| CCCCCCCCS[C@@H]1O[C@H](CO)[C@@H](O[C@@H]2O[C@H](CO)[C@H](O)[C@H](O)[C@H]2O)[C@H](O)[C@H]1O [LacSC8] | C | C | C | G + C | G + C | G | G | G | G | 38-46 °C | 0.20 ± 0.03 J/g hydrogel | 9.2 ± 1.4 kJ/mol thioglycolipids | – | – | – |
